In paper PMC8725837, “2-Arylquinolines as novel anticancer agents with dual EGFR/FAK kinase inhibitory activity: synthesis, biological evaluation, and molecular modelling insights” (Journal of Enzyme Inhibition and Medicinal Chemistry, 2021):

How the values were obtained:
[1] = tested on: MCF-7 breast cancer cell line; assay: MTT antiproliferative assay, MCF-7; format: cell-based; conditions: 10 µM, 24 h
Protocol: (§1) At least, three independent experiments were performed.

[2] = target: EGFR (Homo sapiens, UniProt P00533); assay: Z`-LYTE kinase inhibitory assay, EGFR
[3] = tested on: HeLa cervical cancer cell line; assay: MTT antiproliferative assay, HeLa; format: cell-based; conditions: 10 µM, 24 h
Protocol: as §1

[4] = target: T1, BTK (Homo sapiens, UniProt Q06187); assay: Z`-LYTE kinase profiling, BTK; format: biochemical
T1 construct: purchased Invitrogen/Life Technologies

[5] = target: T2, VEGFR-1 (Homo sapiens, UniProt P17948); assay: Z`-LYTE kinase profiling, VEGFR-1; format: biochemical
T2 construct: purchased Invitrogen/Life Technologies

[6] = target: T3, FRK (Homo sapiens, UniProt P42685); assay: Z`-LYTE kinase profiling, FRK; format: biochemical
T3 construct: purchased Invitrogen/Life Technologies

[7] = target: T4, HER-2 (Homo sapiens, UniProt P04626); assay: Z`-LYTE kinase profiling, HER-2; format: biochemical
T4 construct: purchased Invitrogen/Life Technologies

[8] = target: T5, recombinant human TOP1 (Homo sapiens, UniProt P11387); assay: Topoisomerase I-mediated DNA cleavage assay; conditions: tested at 0.1, 1, 10, 100 µM
T5 sequence (P11387 1-765): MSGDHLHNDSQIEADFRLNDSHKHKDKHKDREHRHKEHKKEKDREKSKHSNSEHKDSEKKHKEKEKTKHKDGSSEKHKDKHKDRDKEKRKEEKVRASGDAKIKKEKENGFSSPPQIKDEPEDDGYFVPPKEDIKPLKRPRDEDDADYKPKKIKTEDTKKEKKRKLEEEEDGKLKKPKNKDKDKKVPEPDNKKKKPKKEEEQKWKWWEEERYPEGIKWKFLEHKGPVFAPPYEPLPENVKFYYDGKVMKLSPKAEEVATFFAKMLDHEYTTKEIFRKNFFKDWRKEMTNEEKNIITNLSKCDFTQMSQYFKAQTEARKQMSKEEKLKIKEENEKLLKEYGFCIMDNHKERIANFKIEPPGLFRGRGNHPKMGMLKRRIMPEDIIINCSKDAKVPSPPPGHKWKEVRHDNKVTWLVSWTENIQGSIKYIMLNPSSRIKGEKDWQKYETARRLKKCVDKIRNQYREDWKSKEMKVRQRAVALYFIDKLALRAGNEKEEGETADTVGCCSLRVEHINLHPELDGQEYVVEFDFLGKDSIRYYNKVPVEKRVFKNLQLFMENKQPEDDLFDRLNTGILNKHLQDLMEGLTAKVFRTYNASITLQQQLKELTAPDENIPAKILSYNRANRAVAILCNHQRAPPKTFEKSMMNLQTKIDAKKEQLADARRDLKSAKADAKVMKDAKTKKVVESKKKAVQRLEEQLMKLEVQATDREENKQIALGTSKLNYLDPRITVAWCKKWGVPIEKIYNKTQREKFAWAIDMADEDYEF
Protocol: Radiolabeled DNA was incubated with recombinant human TOP1 in 20 µL reaction buffer (10 mmol/L Tris-HCl, pH 7.5, 50 mmol/L KCl, 5 mmol/L MgCl2, 0.1 mmol/L EDTA, and 15 µg/mL BSA) at 30 °C for 20 min in the presence of the indicated drug concentrations. Reactions were terminated by adding SDS (0.5% final concentration) followed by the addition of two volumes of loading dye (80% formamide, 10 mmol/L sodium hydroxide, 1 mmol/L sodium EDTA, 0.1% xylene cyanol, and 0.1% bromophenol blue). Aliquots of reaction mixtures were subjected to 20% denaturing PAGE. Gels were dried and visualised by using PhosphorImager and Image Quant software (Molecular Dynamics).

[9] = target: T6, IGF-1R (Homo sapiens, UniProt P08069); assay: Z`-LYTE kinase profiling, IGF-1R; format: biochemical
T6 construct: purchased Invitrogen/Life Technologies

[10] = tested on: HCT-116 colorectal cancer cell line; assay: MTT antiproliferative assay, HCT-116; conditions: for GI% HCT-116: 10 µM, 24 h, MTT; for IC50: Homo sapiens, HCT-116, 24 h, read-out: IC50 HCT-116 (half maximal growth inhibitory concentration)
Protocol: (§2) After the incubation of the tested compounds for 24 h, the percent growth inhibition (GI%) was calculated.
(§3) Cells were seeded at 1 × 10^4 cells/well and cultured overnight in a 96-well plate. […] Then, 150 µl DMSO was used to solubilise MTT formazan crystals. Finally, the plates were shaken, and the optical density was determined at 570 nm using ELISA plate reader. At least, three independent experiments were performed. Percentage of growth inhibition was determined as (1-[OD of treated cells/OD of control cells]). […] The IC50 values were calculated using Prism v0.8 software (GraphPad Software Inc., La Jolla, CA).

[11] = tested on: DLD-1 colorectal cancer cell line; assay: MTT antiproliferative assay, DLD-1; conditions: for GI% DLD1: 10 µM, 24 h, MTT; for IC50: Homo sapiens, DLD-1, 24 h, read-out: IC50 DLD1 (half maximal growth inhibitory concentration)
Protocol: as §2, §3

[12] = tested on: MDMBA-231 breast cancer cell line; assay: MTT antiproliferative assay, MDMBA-231; format: cell-based; conditions: 10 µM, 24 h
Protocol: as §1

[13] = target: T7, VEGFR-2 (Homo sapiens, UniProt P35968); assay: Z`-LYTE kinase profiling, VEGFR-2; format: biochemical
T7 construct: purchased Invitrogen/Life Technologies

[14] = target: T8, c-Src (Homo sapiens, UniProt P12931); assay: Z`-LYTE kinase profiling, c-Src; format: biochemical
T8 construct: purchased Invitrogen/Life Technologies

[15] = target: FAK (Homo sapiens, UniProt Q05397); assay: Z`-LYTE kinase inhibitory assay, FAK
Sequence of FAK (Q05397 whole entry): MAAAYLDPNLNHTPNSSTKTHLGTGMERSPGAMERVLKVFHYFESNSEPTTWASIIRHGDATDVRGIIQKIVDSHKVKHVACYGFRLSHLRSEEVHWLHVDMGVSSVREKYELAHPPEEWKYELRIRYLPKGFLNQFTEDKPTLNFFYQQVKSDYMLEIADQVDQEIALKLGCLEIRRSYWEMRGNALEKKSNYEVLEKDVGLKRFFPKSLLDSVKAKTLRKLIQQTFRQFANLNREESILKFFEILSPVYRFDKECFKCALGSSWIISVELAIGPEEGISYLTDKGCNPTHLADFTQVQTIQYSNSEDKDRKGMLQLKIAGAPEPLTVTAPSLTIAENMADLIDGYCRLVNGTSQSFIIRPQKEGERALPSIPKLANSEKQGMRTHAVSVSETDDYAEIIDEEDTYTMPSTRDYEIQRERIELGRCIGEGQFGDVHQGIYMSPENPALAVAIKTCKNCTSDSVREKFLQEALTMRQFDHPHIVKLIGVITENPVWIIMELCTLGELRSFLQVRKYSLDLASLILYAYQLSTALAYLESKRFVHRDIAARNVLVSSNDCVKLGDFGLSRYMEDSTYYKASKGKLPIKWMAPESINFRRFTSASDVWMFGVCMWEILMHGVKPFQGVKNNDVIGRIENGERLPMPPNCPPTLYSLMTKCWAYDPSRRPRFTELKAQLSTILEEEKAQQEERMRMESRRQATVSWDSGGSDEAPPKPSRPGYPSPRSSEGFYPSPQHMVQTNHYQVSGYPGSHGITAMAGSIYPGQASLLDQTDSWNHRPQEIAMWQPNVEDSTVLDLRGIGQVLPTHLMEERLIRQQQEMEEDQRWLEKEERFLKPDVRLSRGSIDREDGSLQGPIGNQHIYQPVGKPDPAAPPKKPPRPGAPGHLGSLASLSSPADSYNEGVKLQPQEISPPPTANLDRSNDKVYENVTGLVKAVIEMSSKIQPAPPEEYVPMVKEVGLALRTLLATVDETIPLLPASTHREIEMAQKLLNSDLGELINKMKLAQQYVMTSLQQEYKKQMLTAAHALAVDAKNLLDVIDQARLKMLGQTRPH

T8 sequence (P12931 whole entry): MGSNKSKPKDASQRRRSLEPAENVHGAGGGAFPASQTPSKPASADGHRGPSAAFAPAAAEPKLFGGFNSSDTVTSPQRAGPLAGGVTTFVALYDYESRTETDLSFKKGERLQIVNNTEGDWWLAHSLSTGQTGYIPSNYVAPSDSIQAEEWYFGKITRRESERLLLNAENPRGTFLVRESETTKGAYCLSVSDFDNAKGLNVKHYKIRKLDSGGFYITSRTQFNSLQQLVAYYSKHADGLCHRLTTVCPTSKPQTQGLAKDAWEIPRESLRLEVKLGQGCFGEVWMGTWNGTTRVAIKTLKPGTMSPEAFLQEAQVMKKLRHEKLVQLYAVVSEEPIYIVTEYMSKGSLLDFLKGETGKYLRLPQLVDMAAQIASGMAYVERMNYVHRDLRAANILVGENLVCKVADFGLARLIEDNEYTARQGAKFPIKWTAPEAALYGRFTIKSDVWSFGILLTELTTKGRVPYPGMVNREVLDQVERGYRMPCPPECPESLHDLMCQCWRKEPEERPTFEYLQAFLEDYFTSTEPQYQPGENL
T7 sequence (P35968 20-1356): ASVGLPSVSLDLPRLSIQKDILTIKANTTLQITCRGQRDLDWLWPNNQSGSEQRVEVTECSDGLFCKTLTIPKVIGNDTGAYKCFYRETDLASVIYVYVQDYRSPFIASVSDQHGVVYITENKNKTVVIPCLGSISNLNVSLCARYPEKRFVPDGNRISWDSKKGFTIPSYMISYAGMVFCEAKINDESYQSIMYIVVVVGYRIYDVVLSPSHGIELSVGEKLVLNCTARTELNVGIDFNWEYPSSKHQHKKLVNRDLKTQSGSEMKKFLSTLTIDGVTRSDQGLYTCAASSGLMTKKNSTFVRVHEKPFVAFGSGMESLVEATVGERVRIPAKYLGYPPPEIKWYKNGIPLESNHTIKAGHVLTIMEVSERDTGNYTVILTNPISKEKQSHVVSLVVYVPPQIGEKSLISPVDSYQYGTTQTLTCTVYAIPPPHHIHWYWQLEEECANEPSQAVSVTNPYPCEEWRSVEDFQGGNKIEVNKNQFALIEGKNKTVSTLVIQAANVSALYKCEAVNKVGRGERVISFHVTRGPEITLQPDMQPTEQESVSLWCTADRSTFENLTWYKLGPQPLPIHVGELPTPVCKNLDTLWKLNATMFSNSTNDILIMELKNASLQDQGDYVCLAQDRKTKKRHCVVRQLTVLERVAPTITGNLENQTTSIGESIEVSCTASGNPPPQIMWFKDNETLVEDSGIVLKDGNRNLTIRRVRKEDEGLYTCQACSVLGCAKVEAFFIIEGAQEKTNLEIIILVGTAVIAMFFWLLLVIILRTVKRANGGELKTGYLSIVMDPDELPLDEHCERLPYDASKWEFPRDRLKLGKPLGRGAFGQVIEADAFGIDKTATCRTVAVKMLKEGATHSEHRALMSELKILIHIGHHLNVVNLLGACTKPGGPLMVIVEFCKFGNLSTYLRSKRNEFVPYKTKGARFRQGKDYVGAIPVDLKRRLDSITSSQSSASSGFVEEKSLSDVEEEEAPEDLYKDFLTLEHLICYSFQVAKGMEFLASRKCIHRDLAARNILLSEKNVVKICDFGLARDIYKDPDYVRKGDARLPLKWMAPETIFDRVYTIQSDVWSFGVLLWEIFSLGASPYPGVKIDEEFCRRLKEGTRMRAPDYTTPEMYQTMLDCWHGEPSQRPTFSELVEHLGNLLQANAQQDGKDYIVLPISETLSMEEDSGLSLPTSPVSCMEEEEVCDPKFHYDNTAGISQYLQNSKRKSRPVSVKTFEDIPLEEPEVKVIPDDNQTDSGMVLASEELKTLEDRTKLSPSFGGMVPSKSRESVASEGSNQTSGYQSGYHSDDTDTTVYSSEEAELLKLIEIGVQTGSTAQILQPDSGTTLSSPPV
T6 sequence (P08069 31-1367): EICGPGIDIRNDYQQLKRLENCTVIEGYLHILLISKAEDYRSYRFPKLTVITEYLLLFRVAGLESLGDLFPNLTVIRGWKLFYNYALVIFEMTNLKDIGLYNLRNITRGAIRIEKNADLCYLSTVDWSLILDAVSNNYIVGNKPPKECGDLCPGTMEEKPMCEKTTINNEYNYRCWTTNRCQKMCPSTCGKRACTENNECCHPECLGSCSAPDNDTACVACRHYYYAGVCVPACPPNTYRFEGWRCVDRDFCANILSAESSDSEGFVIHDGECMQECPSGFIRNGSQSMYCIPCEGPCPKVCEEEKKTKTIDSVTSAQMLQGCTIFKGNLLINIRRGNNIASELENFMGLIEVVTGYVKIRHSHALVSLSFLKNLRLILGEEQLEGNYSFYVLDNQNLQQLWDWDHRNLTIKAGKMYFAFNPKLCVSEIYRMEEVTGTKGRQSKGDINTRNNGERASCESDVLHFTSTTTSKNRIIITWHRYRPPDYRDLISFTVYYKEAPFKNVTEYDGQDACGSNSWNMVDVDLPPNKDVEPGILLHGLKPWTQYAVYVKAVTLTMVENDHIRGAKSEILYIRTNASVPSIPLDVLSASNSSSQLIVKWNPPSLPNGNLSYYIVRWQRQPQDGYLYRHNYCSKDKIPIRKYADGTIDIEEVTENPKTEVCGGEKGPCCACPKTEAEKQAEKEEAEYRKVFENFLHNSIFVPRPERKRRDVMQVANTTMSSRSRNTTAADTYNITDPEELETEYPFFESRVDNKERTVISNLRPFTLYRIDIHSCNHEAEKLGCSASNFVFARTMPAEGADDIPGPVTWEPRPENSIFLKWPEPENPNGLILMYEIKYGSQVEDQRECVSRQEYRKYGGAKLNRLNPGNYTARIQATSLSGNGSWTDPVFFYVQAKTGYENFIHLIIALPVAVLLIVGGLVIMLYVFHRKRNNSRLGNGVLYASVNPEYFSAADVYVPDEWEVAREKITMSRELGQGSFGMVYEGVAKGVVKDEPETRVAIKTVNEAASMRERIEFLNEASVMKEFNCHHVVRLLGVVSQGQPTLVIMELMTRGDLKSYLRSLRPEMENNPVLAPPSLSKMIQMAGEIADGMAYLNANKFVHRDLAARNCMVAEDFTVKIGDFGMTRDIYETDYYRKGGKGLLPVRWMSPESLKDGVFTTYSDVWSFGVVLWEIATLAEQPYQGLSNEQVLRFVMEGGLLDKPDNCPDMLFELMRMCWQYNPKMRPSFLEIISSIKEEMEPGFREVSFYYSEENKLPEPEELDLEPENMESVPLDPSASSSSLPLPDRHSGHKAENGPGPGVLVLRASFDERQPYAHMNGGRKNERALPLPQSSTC
T3 sequence (P42685 whole entry): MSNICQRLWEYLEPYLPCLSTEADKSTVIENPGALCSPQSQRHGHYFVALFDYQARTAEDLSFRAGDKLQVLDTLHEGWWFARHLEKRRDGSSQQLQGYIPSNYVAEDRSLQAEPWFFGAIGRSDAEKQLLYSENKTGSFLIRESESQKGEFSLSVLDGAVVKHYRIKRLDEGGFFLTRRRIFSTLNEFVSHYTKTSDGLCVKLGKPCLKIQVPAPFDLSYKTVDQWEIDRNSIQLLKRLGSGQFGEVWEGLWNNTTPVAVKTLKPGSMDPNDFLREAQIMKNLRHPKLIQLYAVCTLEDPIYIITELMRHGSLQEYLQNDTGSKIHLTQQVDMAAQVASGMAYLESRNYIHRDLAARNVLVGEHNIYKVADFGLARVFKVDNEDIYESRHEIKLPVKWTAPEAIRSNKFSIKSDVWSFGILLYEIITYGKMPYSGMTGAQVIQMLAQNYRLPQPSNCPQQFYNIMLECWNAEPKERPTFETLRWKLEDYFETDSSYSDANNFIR

Compound	GI% MCF-7 [1] [%]	IC50 [2] [nM]	GI% Hela [3] [%]	IC50 [4] [nM]	IC50 [5] [nM]	melting point [°C]	IC50 [6] [nM]	IC50 [7] [nM]	TOP1 inhibitory activity (semiquantitative score relative to 1 µM CPT) [8]	IC50 [9] [nM]	GI% HCT-116 [10] [%]	IC50 [10] [nM]	GI% DLD1 [11] [%]	IC50 [11] [nM]	GI% MDMBA-231 [12] [%]	IC50 [13] [nM]	IC50 [14] [nM]	IC50 [15] [nM]
COc1cc2nc(-c3ccc(C)cc3)cc(OCCCN3CCN(C)CC3)c2cc1OC [6k, 6,7-dimethoxy-4–(3-(4-methylpiperazin-1-yl)propoxy)-2-(p-tolyl)quinoline]	17.49	410 ± 12.7	11.32	2760	5040	128 to 130	3170	1350	0	2400	22.15	> 100000	18.69	> 100000	8.64	5960	6450	158 ± 8.73
COc1cc2nc(-c3ccc(C)cc3)cc(OCCCNC3CCCCC3)c2cc1OC [6l, N-(3-((6,7-dimethoxy-2-(p-tolyl)quinolin-4-yl)oxy)propyl)cyclohexanamine]	44.71	34.9 ± 3.76	34.29	1610	346	126 to 128	743	756	−/+ (−/+: 0–25% 1 µM CPT)	1820	69.15	8110 ± 1040	75.34	6340 ± 520	38.36	2400	1920	26.4 ± 2.81
COc1cc2nc(-c3ccc(C)cc3)cc(OCCCNC3CCN(C)CC3)c2cc1OC [6m, N-(3-((6,7-dimethoxy-2-(p-tolyl)quinolin-4-yl)oxy)propyl)-1-methylpiperidin-4-amine]	22.09	154 ± 12.8	30.19	2460	865	66 to 68	2760	332	−/+ (−/+: 0–25% 1 µM CPT)	2810	24.31	43100 ± 1050	22.16	54200 ± 2110	8.16	2830	980	172 ± 13.7
COc1cc2nc(-c3ccc(C)cc3)cc(OCCCNCC3CCCO3)c2cc1OC (stereo not drawn) [6n, 3-((6,7-dimethoxy-2-(p-tolyl)quinolin-4-yl)oxy)-N-((tetrahydrofuran-2-yl)methyl)propa-n-1-amine]	58.15	41.8 ± 2.34	71.12	819	556	60 to 62	2520	1390	0	2810	64.26	8690 ± 940	81.34	6110 ± 1800	14.39	1190	82.7	44.4 ± 2.94
COc1cc2nc(-c3ccc(C)cc3)cc(OCCCn3ccnc3)c2cc1OC [6o, 4-(3-(1H-imidazol-1-yl)propoxy)-6,7-dimethoxy-2-(p-tolyl)quinoline]	5.36	256 ± 6.94	9.16	3830	511	203 to 205	786	1380	0	408	1.08	> 100000	12.36	> 100000	8.64	3620	3490	205 ± 8.04
COc1cc2nc(-c3ccc(-c4ccco4)cc3)cc(OCCCN3CCN(C)CC3)c2cc1OC [8a, 2-(4-(furan-2-yl)phenyl)-6,7-dimethoxy-4-(3-(4-methylpiperazin-1-yl)propoxy)quinoline]	7.22	349 ± 14	11.78	5600	648	135 to 137	846	989	0	1060	1.02	> 100000	5.15	> 100000	4.40	6370	4540	198 ± 12.3
COc1cc2nc(-c3ccc(-c4cccs4)cc3)cc(OCCCN3CCN(C)CC3)c2cc1OC [8b, 6,7-dimethoxy-4–(3-(4-methylpiperazin-1-yl)propoxy)-2–(4-(thiophen-2-yl)phenyl)quinol-ine]	74.90	35.5 ± 1.5	50.81	2920	6960	155 to 157	3920	1070	0	3900	52.10	9840 ± 680	74.25	7340 ± 1220	36.87	8370	7200	29.8 ± 2.37
